Earlier results on one molecule are cited in US20220290237A1, “METHOD FOR PREDICTING THE RESPONSE OF ANTIPSYCHOTIC DRUGS” (INSERM (INSTITUT NATIONAL DE LA SANTÉ ET DE LA RECHERCHE …, priority 2019, published 2022).

For this data set the following is noted: first episode psychosis patients; cited from earlier work.

In the case of `Cc1cc2c(s1)Nc1ccccc1N=C2N1CCN(C)CC1` [olanzapine, 2-méthyl-4-(4-méthyl-1-pipérazinyl)-10H-thiéno[2,3-b][1,5]benzodiazepine], the “outcome after change from amisulpride to olanzapine” value was “did not improve outcome for most of the patient”.
